Assay results taken from PubChem BioAssay (NCI).
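Assay format: 96-well plates, 48-hour exposure. The concentration for 50% growth inhibition is given as GI50. TGI: total growth inhibition.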

Assays:
Test in all cases: NCI tumour cell line growth inhibition, 48 h
786-0 renal = test system: 786-0 renal
A498 renal = test system: A498 renal
A549 NSCLC = test system: A549 NSCLC
ACHN renal = test system: ACHN renal
BT-549 breast = test system: BT-549 breast
CAKI-1 renal = test system: CAKI-1 renal
CCRF-CEM leukemia = test system: CCRF-CEM leukemia
COLO 205 colon = test system: COLO 205 colon
DU-145 prostate = test system: DU-145 prostate
EKVX NSCLC = test system: EKVX NSCLC
HCC-2998 colon = test system: HCC-2998 colon
HCT-116 colon = test system: HCT-116 colon
HCT-15 colon = test system: HCT-15 colon
HL-60(TB) leukemia = test system: HL-60(TB) leukemia
HOP-62 NSCLC = test system: HOP-62 NSCLC
HOP-92 NSCLC = test system: HOP-92 NSCLC
HS 578T breast = test system: HS 578T breast
HT29 colon = test system: HT29 colon
IGROV1 ovarian = test system: IGROV1 ovarian
K-562 leukemia = test system: K-562 leukemia
KM12 colon = test system: KM12 colon
LOX IMVI melanoma = test system: LOX IMVI melanoma
M14 melanoma = test system: M14 melanoma
MALME-3M melanoma = test system: MALME-3M melanoma
MCF7 breast = test system: MCF7 breast
MDA-MB-231 breast = test system: MDA-MB-231 breast
MDA-MB-435 = test system: MDA-MB-435
MOLT-4 leukemia = test system: MOLT-4 leukemia
NCI-H226 lung = test system: NCI-H226 lung
NCI-H23 lung = test system: NCI-H23 lung
NCI-H460 lung = test system: NCI-H460 lung
NCI-H522 lung = test system: NCI-H522 lung
NCI/ADR-RES ovarian = test system: NCI/ADR-RES ovarian
OVCAR-3 ovarian = test system: OVCAR-3 ovarian
OVCAR-4 ovarian = test system: OVCAR-4 ovarian
OVCAR-5 ovarian = test system: OVCAR-5 ovarian
OVCAR-8 ovarian = test system: OVCAR-8 ovarian
PC-3 prostate = test system: PC-3 prostate
RPMI-8226 leukemia = test system: RPMI-8226 leukemia
RXF 393 renal = test system: RXF 393 renal
SF-268 CNS = test system: SF-268 CNS
SF-295 CNS = test system: SF-295 CNS
SF-539 CNS = test system: SF-539 CNS
SK-MEL-2 melanoma = test system: SK-MEL-2 melanoma
SK-MEL-28 melanoma = test system: SK-MEL-28 melanoma
SK-MEL-5 melanoma = test system: SK-MEL-5 melanoma
SK-OV-3 ovarian = test system: SK-OV-3 ovarian
SN12C renal = test system: SN12C renal
SNB-19 CNS = test system: SNB-19 CNS
SNB-75 CNS = test system: SNB-75 CNS
SR leukemia = test system: SR leukemia
SW-620 colon = test system: SW-620 colon
T-47D breast = test system: T-47D breast
TK-10 renal = test system: TK-10 renal
U251 CNS = test system: U251 CNS
UACC-257 melanoma = test system: UACC-257 melanoma
UACC-62 melanoma = test system: UACC-62 melanoma
UO-31 renal = test system: UO-31 renal

How did the GI50 (786-0 renal) turn out when `CCCCCCCC(=O)SCC/C=C/[C@@H]1CC(=O)NCc2cccc(n2)CN(Cc2ccc3ccccc3c2)CC(=O)N[C@@H](C(C)C)C(=O)O1` was run?
Its GI50 is > 100 µM.

And the TGI (786-0 renal)?
Its TGI is > 100 µM.

What about the GI50 (A498 renal) of the same compound?
Its GI50 is 29.5 µM.

And the TGI (A498 renal)?
Its TGI is 88.3 µM.

And the GI50 (A549 NSCLC)?
The GI50 was > 100 µM.

And the TGI (A549 NSCLC)?
Its TGI is > 100 µM.

And the GI50 (ACHN renal)?
Its GI50 is 45.3 µM.

And the TGI (ACHN renal)?
The TGI was > 100 µM.

What about the GI50 (BT-549 breast) of the same compound?
The GI50 was > 100 µM.

And the TGI (BT-549 breast)?
Its TGI is > 100 µM.

What about the GI50 (CAKI-1 renal) of the same compound?
Its GI50 is > 100 µM.

What about the TGI (CAKI-1 renal) of the same compound?
The TGI was > 100 µM.

What about the GI50 (CCRF-CEM leukemia) of the same compound?
The GI50 was 37.9 µM.

And the TGI (CCRF-CEM leukemia)?
Its TGI is > 100 µM.

And the GI50 (COLO 205 colon)?
Its GI50 is 61.6 µM.

What about the TGI (COLO 205 colon) of the same compound?
The TGI was > 100 µM.

What about the GI50 (DU-145 prostate) of the same compound?
The GI50 was 94.1 µM.

And the TGI (DU-145 prostate)?
Its TGI is > 100 µM.

And the GI50 (EKVX NSCLC)?
The GI50 was > 100 µM.

What about the TGI (EKVX NSCLC) of the same compound?
Its TGI is > 100 µM.

What about the GI50 (HCC-2998 colon) of the same compound?
Its GI50 is > 100 µM.

What about the TGI (HCC-2998 colon) of the same compound?
Its TGI is > 100 µM.

What about the GI50 (HCT-116 colon) of the same compound?
The GI50 was 26.5 µM.

And the TGI (HCT-116 colon)?
Its TGI is > 100 µM.

And the GI50 (HCT-15 colon)?
Its GI50 is 89.3 µM.

And the TGI (HCT-15 colon)?
Its TGI is > 100 µM.

And the GI50 (HL-60(TB) leukemia)?
The GI50 was 48 µM.

What about the TGI (HL-60(TB) leukemia) of the same compound?
The TGI was > 100 µM.

And the GI50 (HOP-62 NSCLC)?
The GI50 was 39.2 µM.

What about the TGI (HOP-62 NSCLC) of the same compound?
Its TGI is > 100 µM.

What about the GI50 (HOP-92 NSCLC) of the same compound?
The GI50 was 56.2 µM.

What about the TGI (HOP-92 NSCLC) of the same compound?
Its TGI is > 100 µM.

And the GI50 (HS 578T breast)?
The GI50 was 46 µM.

What about the TGI (HS 578T breast) of the same compound?
Its TGI is > 100 µM.

And the GI50 (HT29 colon)?
The GI50 was 32.2 µM.

And the TGI (HT29 colon)?
The TGI was > 100 µM.

What about the GI50 (IGROV1 ovarian) of the same compound?
Its GI50 is 44.4 µM.

What about the TGI (IGROV1 ovarian) of the same compound?
Its TGI is > 100 µM.

What about the GI50 (K-562 leukemia) of the same compound?
The GI50 was 59.4 µM.

What about the TGI (K-562 leukemia) of the same compound?
Its TGI is > 100 µM.

And the GI50 (KM12 colon)?
The GI50 was 42.3 µM.

What about the TGI (KM12 colon) of the same compound?
The TGI was > 100 µM.

And the GI50 (LOX IMVI melanoma)?
Its GI50 is 35.1 µM.

What about the TGI (LOX IMVI melanoma) of the same compound?
The TGI was > 100 µM.

What about the GI50 (M14 melanoma) of the same compound?
Its GI50 is 44.3 µM.

What about the TGI (M14 melanoma) of the same compound?
The TGI was > 100 µM.

And the GI50 (MALME-3M melanoma)?
Its GI50 is 23.8 µM.

And the TGI (MALME-3M melanoma)?
Its TGI is > 100 µM.

What about the GI50 (MCF7 breast) of the same compound?
The GI50 was 40 µM.

And the TGI (MCF7 breast)?
Its TGI is > 100 µM.

And the GI50 (MDA-MB-231 breast)?
Its GI50 is 41.4 µM.

What about the TGI (MDA-MB-231 breast) of the same compound?
Its TGI is > 100 µM.

And the GI50 (MDA-MB-435)?
Its GI50 is 39.7 µM.

What about the TGI (MDA-MB-435) of the same compound?
Its TGI is > 100 µM.

What about the GI50 (MOLT-4 leukemia) of the same compound?
The GI50 was 30.9 µM.

And the TGI (MOLT-4 leukemia)?
The TGI was > 100 µM.

And the GI50 (NCI-H226 lung)?
The GI50 was > 100 µM.

And the TGI (NCI-H226 lung)?
The TGI was > 100 µM.

What about the GI50 (NCI-H23 lung) of the same compound?
The GI50 was > 100 µM.

What about the TGI (NCI-H23 lung) of the same compound?
Its TGI is > 100 µM.

What about the GI50 (NCI-H460 lung) of the same compound?
The GI50 was 43.9 µM.

What about the TGI (NCI-H460 lung) of the same compound?
Its TGI is > 100 µM.

What about the GI50 (NCI-H522 lung) of the same compound?
Its GI50 is 84.3 µM.

What about the TGI (NCI-H522 lung) of the same compound?
The TGI was > 100 µM.

And the GI50 (NCI/ADR-RES ovarian)?
The GI50 was 46.4 µM.

What about the TGI (NCI/ADR-RES ovarian) of the same compound?
Its TGI is > 100 µM.

And the GI50 (OVCAR-3 ovarian)?
The GI50 was 74.3 µM.

And the TGI (OVCAR-3 ovarian)?
Its TGI is > 100 µM.

What about the GI50 (OVCAR-4 ovarian) of the same compound?
The GI50 was > 100 µM.

And the TGI (OVCAR-4 ovarian)?
The TGI was > 100 µM.

What about the GI50 (OVCAR-5 ovarian) of the same compound?
The GI50 was > 100 µM.

And the TGI (OVCAR-5 ovarian)?
The TGI was > 100 µM.

What about the GI50 (OVCAR-8 ovarian) of the same compound?
Its GI50 is 87 µM.

And the TGI (OVCAR-8 ovarian)?
Its TGI is > 100 µM.

What about the GI50 (PC-3 prostate) of the same compound?
The GI50 was 62.4 µM.

And the TGI (PC-3 prostate)?
The TGI was > 100 µM.

And the GI50 (RPMI-8226 leukemia)?
The GI50 was > 100 µM.

What about the TGI (RPMI-8226 leukemia) of the same compound?
The TGI was > 100 µM.

And the GI50 (RXF 393 renal)?
The GI50 was 42.2 µM.

And the TGI (RXF 393 renal)?
Its TGI is > 100 µM.

And the GI50 (SF-268 CNS)?
Its GI50 is 93.8 µM.

What about the TGI (SF-268 CNS) of the same compound?
The TGI was > 100 µM.

And the GI50 (SF-295 CNS)?
The GI50 was 41.4 µM.

What about the TGI (SF-295 CNS) of the same compound?
The TGI was > 100 µM.

And the GI50 (SF-539 CNS)?
Its GI50 is > 100 µM.

And the TGI (SF-539 CNS)?
The TGI was > 100 µM.

What about the GI50 (SK-MEL-2 melanoma) of the same compound?
Its GI50 is 92.4 µM.

And the TGI (SK-MEL-2 melanoma)?
Its TGI is > 100 µM.

What about the GI50 (SK-MEL-28 melanoma) of the same compound?
Its GI50 is 47 µM.

What about the TGI (SK-MEL-28 melanoma) of the same compound?
Its TGI is > 100 µM.

And the GI50 (SK-MEL-5 melanoma)?
Its GI50 is 36.2 µM.

What about the TGI (SK-MEL-5 melanoma) of the same compound?
The TGI was > 100 µM.

And the GI50 (SK-OV-3 ovarian)?
Its GI50 is 40 µM.

What about the TGI (SK-OV-3 ovarian) of the same compound?
Its TGI is > 100 µM.

What about the GI50 (SN12C renal) of the same compound?
Its GI50 is > 100 µM.

And the TGI (SN12C renal)?
The TGI was > 100 µM.

And the GI50 (SNB-19 CNS)?
Its GI50 is > 100 µM.

What about the TGI (SNB-19 CNS) of the same compound?
The TGI was > 100 µM.

And the GI50 (SNB-75 CNS)?
Its GI50 is 27.9 µM.

And the TGI (SNB-75 CNS)?
The TGI was > 100 µM.

What about the GI50 (SR leukemia) of the same compound?
The GI50 was 22.9 µM.

What about the TGI (SR leukemia) of the same compound?
Its TGI is > 100 µM.

What about the GI50 (SW-620 colon) of the same compound?
Its GI50 is > 100 µM.

What about the TGI (SW-620 colon) of the same compound?
Its TGI is > 100 µM.

What about the GI50 (T-47D breast) of the same compound?
Its GI50 is > 100 µM.

And the TGI (T-47D breast)?
The TGI was > 100 µM.

And the GI50 (TK-10 renal)?
The GI50 was 18.2 µM.

And the TGI (TK-10 renal)?
The TGI was > 100 µM.

And the GI50 (U251 CNS)?
Its GI50 is 98.2 µM.

What about the TGI (U251 CNS) of the same compound?
The TGI was > 100 µM.

What about the GI50 (UACC-257 melanoma) of the same compound?
Its GI50 is 88.9 µM.

And the TGI (UACC-257 melanoma)?
The TGI was > 100 µM.

And the GI50 (UACC-62 melanoma)?
Its GI50 is 51.6 µM.

What about the TGI (UACC-62 melanoma) of the same compound?
The TGI was > 100 µM.

What about the GI50 (UO-31 renal) of the same compound?
The GI50 was 50 µM.

And the TGI (UO-31 renal)?
The TGI was > 100 µM.
